Laboratory results taken from paper PMC3124649 (Journal of medicinal chemistry, 2011).

Tests used:
[1] = administered after food; cited from earlier work
anaerobic bacteria [2] = experiment: Activity against anaerobes
CYP isozymes = experiment: CYP inhibition panel; format: in vitro ADME
[3] = test system: HBV replication (extracellular virion HBV DNA); experiment: HBV virion; format: cell-based, hepatitis B virus; details: for activity against HBV (in words): 2.2.15 cells
Dog PK study = format: in vivo
Rat PK study = format: in vivo
Plasma protein binding = format: in vitro ADME; details: ADME/Tox studies
[4] = Stability in human blood and plasma; format: in vitro ADME; details: one hour incubation
HCV = details: cited from earlier work
[5] = cited from earlier work
anaerobic bacteria [6] = details: cited from earlier work
[7] = cited from earlier work; remark: listed apart in the source

Row | Compound | activity against HBV (in words) [3] | also measured
1 | CC(=O)Oc1ccccc1C(=O)Nc1ncc([N+](=O)[O-])s1 [Compound 1, nitazoxanide] | – | oral bioavailability [1]: about 50%
2 | O=C(Nc1ncc(Cl)s1)c1ccccc1O [Compound 3, 2-Hydroxybenzoyl-N-(5-chlorothiazol-2-yl) amide] | – | activity against anaerobes (anaerobic bacteria [2]): inactive; drug-drug interactions (CYP isozymes): nor does it show unfavourable drug-drug interactions; effects against a panel of CYPs (CYP isozymes): no adverse effects
3 | Cc1cccc(C(=O)Nc2ncc(Cl)s2)c1O [Compound 11] | essentially inactive | –
4 | Cc1ccc(O)c(C(=O)Nc2ncc(Cl)s2)c1 [Compound 12, 2-Hydroxy-5-methylbenzoyl-N-(5-chlorothiazol-2-yl) amide] | – | oral absorption (Dog PK study): not orally absorbed; oral absorption (Rat PK study): not orally absorbed; protein bound (Plasma protein binding): > 99%; stability in human blood and plasma [4]: complete stability; inhibition of CYP isozymes (CYP isozymes; 14 different CYP isozymes): not an inhibitor
5 | O=C(Nc1nccs1)c1ccccc1O [Compound 16] | complete loss of HBV activity | –
6 | CC(C)c1cnc(NC(=O)c2ccccc2O)s1 [Compound 17] | inactive | –
7 | O=C(Nc1ncc(-c2ccc(Cl)cc2)s1)c1ccccc1O [Compound 18] | inactive | –
8 | O=C(Nc1nc(-c2ccccc2)cs1)c1ccccc1O [Compound 19] | modest level of activity | –
9 | CC(=O)Nc1cnc(NC(=O)c2ccccc2O)s1 [Compound 23, 2-Hydroxybenzoyl-N-(5-acetamidothiazol-2-yl)amide] | inactive | –
10 | CS(=O)(=O)c1csc(NC(=O)c2ccccc2O)n1 [Compound 24] | inactive | inhibition of HCV (HCV): potent inhibitor
11 | CS(=O)(=O)c1cnc(NC(=O)c2ccccc2O)s1 [Compound 25] | inactive | –
12 | N#Cc1cnc(NC(=O)c2ccccc2O)s1 [Compound 26] | slight activity | –
13 | COC(=O)c1cnc(NC(=O)c2ccccc2O)s1 [Compound 27] | inactive | –
14 | O=C(Nc1ncc(C(F)(F)F)s1)c1ccccc1O [Compound 28] | slight activity | –
15 | CC(=O)Oc1ccccc1C(=O)Nc1ccc(Cl)cc1 [Compound 30] | low potency | –
16 | O=C(Nc1ccc(Cl)cc1)c1ccccc1O [Compound 31] | lack of activity | –
17 | CC(=O)Oc1ccccc1C(=O)Nc1ccc(Br)cc1 [Compound 32] | useful activity | –
18 | CC(=O)Oc1ccccc1C(=O)Nc1ccc(I)cc1 [Compound 33] | useful activity | –
19 | O=C(Nc1ccc([N+](=O)[O-])cc1)c1ccccc1O [Compound 34] | inactive | –
20 | O=C(Nc1cc(C(F)(F)F)ccc1Cl)c1ccccc1O [Compound 35] | moderate activity | –
21 | CC(=O)Oc1ccccc1C(=O)Nc1cc(C(F)(F)F)cc(C(F)(F)F)c1 [Compound 36] | moderate activity | –
22 | Cc1cc([N+](=O)[O-])c(Cl)cc1NC(=O)c1ccccc1O [Compound 37] | good activity | –
23 | CSc1cnc(NC(=O)c2ccccc2OC(C)=O)s1 [Compound 44] | inactive | –
24 | O=C(Nc1ncc([N+](=O)[O-])s1)c1ccccc1O[C@@H]1O[C@H](C(=O)O)[C@@H](O)[C@H](O)[C@H]1O [Compound 58] | – | antiviral activity [5]: essentially devoid of antiviral activity; activity against anaerobic bacteria (anaerobic bacteria [6]): moderate activity
25 | O=C(Nc1ccc([N+](=O)[O-])cc1Cl)c1cc(Cl)ccc1O [Niclosamide, reference compound] | inactive | EC50 ([3]; Hepatitis B virus, read-out: EC50 (VIR)): > 10 µM; aqueous solubility [7]: poor
